Laboratory results: US20110015226A1, “Treatment of Energy Utilization Disease” (SUMMIT CORPORATION PLC, priority 2008, published 2011)
Read-outs that look alike come from different tables or passages of the source.

Tests used:
Type in all cases: biochemical
[1] = target: T1, α-L-fucosidase Bovine kidney (Bos taurus, UniProt Q2KIM0); assay: Glycosidase inhibition: α-L-fucosidase Bovine kidney; settings: compounds tested at 0.8 mM
T1 construct: α-L-fucosidase (Bovine kidney); purchased Sigma; host or cells: bovine kidney
T1 sequence (Q2KIM0 23-468): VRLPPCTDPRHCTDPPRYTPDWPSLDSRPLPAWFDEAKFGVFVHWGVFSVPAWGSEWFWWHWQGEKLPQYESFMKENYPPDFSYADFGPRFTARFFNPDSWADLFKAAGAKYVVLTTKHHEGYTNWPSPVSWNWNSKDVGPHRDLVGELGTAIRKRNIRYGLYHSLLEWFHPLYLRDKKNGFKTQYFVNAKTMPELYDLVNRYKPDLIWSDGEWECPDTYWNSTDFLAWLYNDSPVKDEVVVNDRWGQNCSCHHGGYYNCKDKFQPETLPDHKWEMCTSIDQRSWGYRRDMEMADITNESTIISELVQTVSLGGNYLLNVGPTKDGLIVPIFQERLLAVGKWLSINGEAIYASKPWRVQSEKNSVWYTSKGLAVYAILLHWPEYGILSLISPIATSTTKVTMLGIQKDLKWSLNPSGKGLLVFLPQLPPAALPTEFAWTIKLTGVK

[2] = target: T2, β-Glucuronidase Bovine liver (Bos taurus, UniProt A3KMY8); assay: Glycosidase inhibition: β-Glucuronidase Bovine liver; settings: for % Glucuronidase inhibition at 0.8 mM Bovine Liver: approximately 0.8 mM;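 as to all read-outs here: bovine liver β-glucuronidase acting on p-nitrophenyl β-D-glucuronide substrate in citric acid/disodium hydrogen phosphate buffer, pH 5.0, 27 °C, mean of triplicate runs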
T2 construct: The assay involved the use of Bovine liver β-glucuronidase; purchased Sigma; host or cells: bovine liver
T2 sequence (A3KMY8 1-652): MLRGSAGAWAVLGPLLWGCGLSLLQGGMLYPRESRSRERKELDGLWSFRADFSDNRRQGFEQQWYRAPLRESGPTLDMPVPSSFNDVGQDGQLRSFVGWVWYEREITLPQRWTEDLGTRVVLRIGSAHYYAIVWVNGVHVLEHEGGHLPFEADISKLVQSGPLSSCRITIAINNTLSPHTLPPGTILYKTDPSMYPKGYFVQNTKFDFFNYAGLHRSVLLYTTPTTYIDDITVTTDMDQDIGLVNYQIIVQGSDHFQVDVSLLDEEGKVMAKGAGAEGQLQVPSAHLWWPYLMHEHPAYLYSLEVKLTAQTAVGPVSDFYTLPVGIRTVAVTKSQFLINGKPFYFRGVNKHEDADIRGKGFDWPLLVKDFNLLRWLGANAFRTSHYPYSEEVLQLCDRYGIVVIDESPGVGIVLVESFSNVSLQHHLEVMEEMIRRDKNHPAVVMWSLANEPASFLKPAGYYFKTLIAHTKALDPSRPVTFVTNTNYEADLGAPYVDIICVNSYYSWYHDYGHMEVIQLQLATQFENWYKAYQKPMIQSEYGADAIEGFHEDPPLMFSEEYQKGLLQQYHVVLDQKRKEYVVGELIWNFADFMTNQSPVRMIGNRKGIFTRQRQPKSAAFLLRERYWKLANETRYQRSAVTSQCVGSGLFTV

[3] = target: T3, N-acetyl-β-D-glucosaminidase (A. oryzae) (Aspergillus oryzae, UniProt Q8J2T0); assay: Glycosidase inhibition: N-acetyl-β-D-glucosaminidase (A. oryzae); settings: compounds tested at 0.8 mM
T3 construct: purchased Sigma
T3 sequence (Q8J2T0 97-600): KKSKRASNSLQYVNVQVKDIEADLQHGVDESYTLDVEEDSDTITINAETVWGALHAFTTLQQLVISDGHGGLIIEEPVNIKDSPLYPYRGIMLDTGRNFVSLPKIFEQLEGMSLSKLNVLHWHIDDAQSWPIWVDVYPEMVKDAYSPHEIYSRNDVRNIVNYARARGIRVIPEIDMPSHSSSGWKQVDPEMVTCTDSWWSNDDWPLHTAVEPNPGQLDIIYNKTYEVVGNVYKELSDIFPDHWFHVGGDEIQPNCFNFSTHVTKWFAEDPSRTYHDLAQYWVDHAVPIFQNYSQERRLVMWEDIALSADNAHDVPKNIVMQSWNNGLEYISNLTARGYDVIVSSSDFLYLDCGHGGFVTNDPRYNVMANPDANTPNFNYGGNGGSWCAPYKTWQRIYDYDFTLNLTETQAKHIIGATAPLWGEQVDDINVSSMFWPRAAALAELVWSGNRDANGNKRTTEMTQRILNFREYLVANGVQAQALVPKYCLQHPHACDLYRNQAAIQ
Excerpt: (§1) The results tabulated below were obtained using commercially available glycosidases and p-nitrophenyl-substrates using standard methods described for example by Watson et al (1997) Phytochemistry 46 255-259. All enzymes and substrates were bought from Sigma. Enzyme and substrate solutions were made using sodium phosphate buffers at the pH optima values. The enzymes used were α-D-glucosidase Saccharomyces cerevisiae, Bacillus stearothermophilus, Oryzae sativa), β-D-glucosidase (Almond), α-D-mannosidase (Jack bean), α-D-galactosidase (Green coffee beans), β-D-galactosidase (Bovine liver), α-L-fucosidase (Bovine kidney), N-acetyl-β-D-glucosaminidase (Bovine kidney, Jack bean, Aspergillus oryzae), Naringinase (Penicillium decumbens) and amyloglucosidase (Aspergillus niger). All enzymes were used with the appropriate p-nitrophenyl substrates (5 mM). Amyloglucosidase activity was measured using amylopectin (0.1%) (Merck) mixed with sodium phosphate buffer, pH 4.5 in a glass bottle, and healed in a boiling water bath for 20 minutes to dissolve with released glucose measured using ‘Trinder’ glucose detection solution (Sigma).
(§2) All enzymes and para-nitrophenyl substrates were purchased from Sigma, with the exception of beta-mannosidase which came from Megazyme. Enzymes were assayed at 27° C. in 0.1M citric acid/0.2M disodium hydrogen phosphate buffers at the optimum pH for the enzyme. The incubation mixture consisted of 10 μl enzyme solution, 10 μl of 1 mg/ml aqueous solution of extract and 50 μl of the appropriate 5 mM para-nitrophenyl substrate made up in buffer at the optimum pH for the enzyme. The reactions were stopped by addition of 70 μl 0.4M glycine (pH 10.4) during the exponential phase of the reaction, which had been determined at the beginning using uninhibited assays in which water replaced inhibitor. Final absorbances were read at 405 nm using a Versamax microplate reader (Molecular Devices). Assays were carried out in triplicate, and the values given are means of the three replicates per assay. (See Watson, A. A., Nash, R. J., Wormald, M. R., Harvey, D. J., Dealler, S., Lees, E., Asano, N., Kizu, H., Kato, A., Griffiths, R. C., Cairns, A. J. and Fleet, G. W. J. (1997). Glycosidase-inhibiting pyrrolidine alkaloids from Hyacinthoides non-scripta. Phytochemistry 46 (2): 255-259.)

[4] = target: T4, Amyloglucosidase Aspergillus niger (Aspergillus niger, UniProt P69328); assay: Glycosidase inhibition: Amyloglucosidase Aspergillus niger; settings: compounds tested at 0.8 mM
T4 construct: purchased Sigma
T4 sequence (P69328 25-640): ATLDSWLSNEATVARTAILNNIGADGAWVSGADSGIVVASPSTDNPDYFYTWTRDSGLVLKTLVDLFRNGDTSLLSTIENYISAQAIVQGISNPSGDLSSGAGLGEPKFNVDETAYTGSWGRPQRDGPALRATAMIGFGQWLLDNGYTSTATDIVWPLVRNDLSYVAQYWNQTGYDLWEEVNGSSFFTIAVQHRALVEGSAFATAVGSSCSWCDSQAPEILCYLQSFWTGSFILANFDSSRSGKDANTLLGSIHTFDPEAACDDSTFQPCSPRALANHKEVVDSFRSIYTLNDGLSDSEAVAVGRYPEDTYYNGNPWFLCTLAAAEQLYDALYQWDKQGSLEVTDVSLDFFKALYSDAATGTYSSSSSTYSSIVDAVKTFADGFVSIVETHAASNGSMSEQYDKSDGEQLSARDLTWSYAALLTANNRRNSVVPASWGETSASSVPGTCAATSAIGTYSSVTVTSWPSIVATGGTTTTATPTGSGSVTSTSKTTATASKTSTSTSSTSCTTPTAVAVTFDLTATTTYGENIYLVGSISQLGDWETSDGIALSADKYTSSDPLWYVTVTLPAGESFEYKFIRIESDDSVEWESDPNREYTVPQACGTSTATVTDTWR
Excerpt: as §1, §2

[5] = target: T5, α-D-mannosidase Jack bean (Canavalia ensiformis, UniProt C0HJB3); assay: Glycosidase inhibition: α-D-mannosidase Jack bean; settings: compounds tested at 0.8 mM
T5 construct: α-D-mannosidase (Jack bean); purchased Sigma
T5 sequence (C0HJB3 1-981): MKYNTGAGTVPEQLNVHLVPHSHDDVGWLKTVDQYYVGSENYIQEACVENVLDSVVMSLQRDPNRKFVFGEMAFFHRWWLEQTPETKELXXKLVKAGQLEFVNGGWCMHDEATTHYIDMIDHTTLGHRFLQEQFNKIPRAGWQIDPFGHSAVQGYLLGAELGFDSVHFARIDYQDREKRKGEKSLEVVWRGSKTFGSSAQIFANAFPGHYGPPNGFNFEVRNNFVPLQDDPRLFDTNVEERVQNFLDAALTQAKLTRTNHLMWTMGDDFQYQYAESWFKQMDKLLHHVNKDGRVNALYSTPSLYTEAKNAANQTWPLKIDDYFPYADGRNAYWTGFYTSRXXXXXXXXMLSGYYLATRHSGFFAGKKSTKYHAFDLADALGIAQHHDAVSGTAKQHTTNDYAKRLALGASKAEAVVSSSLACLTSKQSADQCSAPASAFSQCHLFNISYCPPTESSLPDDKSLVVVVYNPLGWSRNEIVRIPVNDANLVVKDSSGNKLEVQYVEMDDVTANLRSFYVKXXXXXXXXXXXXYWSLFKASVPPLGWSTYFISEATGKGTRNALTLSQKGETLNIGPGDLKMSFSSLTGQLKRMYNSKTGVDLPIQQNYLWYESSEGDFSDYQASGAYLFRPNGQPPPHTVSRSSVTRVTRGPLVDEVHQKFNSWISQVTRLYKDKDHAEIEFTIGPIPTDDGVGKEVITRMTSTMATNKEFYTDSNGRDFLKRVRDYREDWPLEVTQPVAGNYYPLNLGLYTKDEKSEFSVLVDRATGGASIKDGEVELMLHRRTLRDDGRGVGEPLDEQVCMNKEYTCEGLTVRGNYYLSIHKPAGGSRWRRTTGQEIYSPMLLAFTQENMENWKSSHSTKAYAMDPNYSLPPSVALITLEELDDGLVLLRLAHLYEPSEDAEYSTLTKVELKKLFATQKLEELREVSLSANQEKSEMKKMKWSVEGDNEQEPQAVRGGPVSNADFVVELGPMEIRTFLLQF

[6] = target: α-D-glucosidase (Bacillus) (Geobacillus stearothermophilus, UniProt A0ACH1E9U3); assay: Glycosidase inhibition: α-D-glucosidase (Bacillus); settings: compounds tested at 0.8 mM
Chain of α-D-glucosidase (Bacillus) (A0ACH1E9U3 entry or part of it): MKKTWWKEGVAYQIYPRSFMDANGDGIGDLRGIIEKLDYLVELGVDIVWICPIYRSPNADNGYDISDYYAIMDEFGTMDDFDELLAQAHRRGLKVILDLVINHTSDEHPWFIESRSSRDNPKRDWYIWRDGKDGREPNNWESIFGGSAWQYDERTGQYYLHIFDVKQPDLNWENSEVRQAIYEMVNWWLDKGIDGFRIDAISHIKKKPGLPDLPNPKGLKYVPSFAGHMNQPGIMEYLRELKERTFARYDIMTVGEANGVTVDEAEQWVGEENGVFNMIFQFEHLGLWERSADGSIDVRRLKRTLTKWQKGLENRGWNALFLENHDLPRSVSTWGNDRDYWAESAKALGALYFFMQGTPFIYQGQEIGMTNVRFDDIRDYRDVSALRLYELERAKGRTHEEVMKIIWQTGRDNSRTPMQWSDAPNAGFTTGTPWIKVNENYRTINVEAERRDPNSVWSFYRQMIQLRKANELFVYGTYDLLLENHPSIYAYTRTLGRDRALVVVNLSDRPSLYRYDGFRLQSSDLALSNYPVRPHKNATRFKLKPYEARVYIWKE
Excerpt: as §1, §2

α-D-glucosidase (Yeast) = target: T6, α-D-glucosidase (Yeast) (Saccharomyces cerevisiae, UniProt P53341); assay: Glycosidase inhibition: α-D-glucosidase (Yeast); settings: compounds tested at 0.8 mM
T6 construct: purchased Sigma
T6 sequence (P53341 whole entry): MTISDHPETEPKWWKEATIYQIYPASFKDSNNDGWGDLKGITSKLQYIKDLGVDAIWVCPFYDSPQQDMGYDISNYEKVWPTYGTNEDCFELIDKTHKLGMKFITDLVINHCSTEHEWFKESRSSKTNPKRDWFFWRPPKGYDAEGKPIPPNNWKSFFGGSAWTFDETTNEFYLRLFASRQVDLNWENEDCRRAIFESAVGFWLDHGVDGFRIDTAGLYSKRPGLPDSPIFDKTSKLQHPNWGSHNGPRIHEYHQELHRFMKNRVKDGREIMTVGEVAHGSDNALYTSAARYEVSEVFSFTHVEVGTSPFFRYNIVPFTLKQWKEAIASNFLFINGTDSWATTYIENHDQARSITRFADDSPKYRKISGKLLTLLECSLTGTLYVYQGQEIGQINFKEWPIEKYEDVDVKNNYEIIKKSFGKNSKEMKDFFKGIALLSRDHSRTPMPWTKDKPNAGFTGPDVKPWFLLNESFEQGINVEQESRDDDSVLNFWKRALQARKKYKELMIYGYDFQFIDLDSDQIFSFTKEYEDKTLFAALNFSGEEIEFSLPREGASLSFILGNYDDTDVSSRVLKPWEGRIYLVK
Excerpt: as §1, §2

α-D-glucosidase (Rice) = target: T7, α-D-glucosidase (Rice) (Oryza sativa subsp. japonica, UniProt Q653V7); assay: Glycosidase inhibition: α-D-glucosidase (Rice); settings: compounds tested at 0.8 mM
T7 construct: purchased Sigma
T7 sequence (Q653V7 34-885): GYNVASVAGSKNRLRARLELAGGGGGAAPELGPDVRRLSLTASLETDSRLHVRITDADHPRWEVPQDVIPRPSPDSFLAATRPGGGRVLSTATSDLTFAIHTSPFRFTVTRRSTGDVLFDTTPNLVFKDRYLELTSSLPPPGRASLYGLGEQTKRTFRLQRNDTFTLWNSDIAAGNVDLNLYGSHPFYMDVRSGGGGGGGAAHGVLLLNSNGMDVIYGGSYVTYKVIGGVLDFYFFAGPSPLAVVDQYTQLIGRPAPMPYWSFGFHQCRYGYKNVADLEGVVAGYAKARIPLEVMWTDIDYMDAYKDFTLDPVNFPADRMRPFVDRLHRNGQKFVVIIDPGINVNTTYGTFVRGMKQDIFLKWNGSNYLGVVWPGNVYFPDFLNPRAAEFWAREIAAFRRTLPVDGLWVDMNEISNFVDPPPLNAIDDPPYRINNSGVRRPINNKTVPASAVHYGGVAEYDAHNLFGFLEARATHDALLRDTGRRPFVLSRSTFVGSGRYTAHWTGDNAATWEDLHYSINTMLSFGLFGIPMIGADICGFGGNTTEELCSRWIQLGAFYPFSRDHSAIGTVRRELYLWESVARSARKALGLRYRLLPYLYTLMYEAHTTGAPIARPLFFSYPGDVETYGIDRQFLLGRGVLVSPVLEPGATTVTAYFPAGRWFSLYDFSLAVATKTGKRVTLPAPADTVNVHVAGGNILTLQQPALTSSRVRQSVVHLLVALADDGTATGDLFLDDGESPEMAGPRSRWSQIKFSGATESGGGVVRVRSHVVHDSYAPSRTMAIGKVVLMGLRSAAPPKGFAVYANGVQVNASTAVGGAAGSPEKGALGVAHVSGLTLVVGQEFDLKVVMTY

[7] = target: T8, α-D-galactosidase Green coffee bean (Coffea arabica, UniProt Q42656); assay: Glycosidase inhibition: α-D-galactosidase Green coffee bean; settings: compounds tested at 0.8 mM
T8 construct: α-D-galactosidase (Green coffee beans); purchased Sigma; host or cells: green coffee beans
T8 sequence (Q42656 16-378): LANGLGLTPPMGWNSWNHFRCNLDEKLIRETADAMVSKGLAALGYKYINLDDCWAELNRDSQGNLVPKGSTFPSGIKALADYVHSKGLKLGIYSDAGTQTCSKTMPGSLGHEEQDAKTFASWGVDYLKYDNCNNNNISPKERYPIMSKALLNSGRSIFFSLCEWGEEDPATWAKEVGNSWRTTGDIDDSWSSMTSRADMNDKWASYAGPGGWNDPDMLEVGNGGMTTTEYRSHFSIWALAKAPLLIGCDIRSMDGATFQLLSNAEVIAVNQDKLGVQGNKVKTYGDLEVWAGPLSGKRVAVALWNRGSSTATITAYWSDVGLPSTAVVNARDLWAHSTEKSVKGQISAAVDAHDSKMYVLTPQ
Excerpt: as §1, §2

[8] = system: N-acetyl-β-D-glucosaminidase (Bovine kidney); assay: Glycosidase inhibition: N-acetyl-β-D-glucosaminidase (Bovine kidney); settings: for % Nacetyl glucosaminidase inhibition at 0.8 mM Bovine kidney: approximately 0.8 mM;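 as to all read-outs here: enzyme activity followed by cleavage of the matching p-nitrophenyl glycoside (5 mM) in phosphate buffer set to the enzyme's optimal pH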
[9] = read-out: IC50 Glucuronidase Bovine Liver

Row | % Glucuronidase inhibition at 0.8 mM Bovine Liver [2] [%] | % Nacetyl glucosaminidase inhibition at 0.8 mM Bovine kidney [8] [%] | SMILES | other results
1 | 99.6 | −5.2 | O=C(O)[C@H]1NC(=O)[C@H](O)[C@@H](O)[C@@H]1O | IC50 [2, 9]: 0.04 µM
2 | −3.2 | −4.2 | CC(O)(CC(N)C(=O)O)C(=O)O (stereo not shown) | 
3 | 85.3 | 90.1 | O=C(O)CCC1[C@H](CO)C(=O)[C@H](O)[C@H]1CO (stereo partly shown) | IC50 [2, 9]: 81 µM; IC50 ([8]; read-out: IC50 Nacetyl glucosaminidase Bovine kidney): 5.1 µM
4 | 3.3 | 25.8 | O=C(O)[C@H]1N[C@H](CO)C(O)[C@H](O)[C@@H]1O (stereo partly shown) | 
5 | −4.4 | −0.6 | C[N+]1([O-])CC[C@H](O)[C@@H]1C(=O)O (stereo partly shown) | 

The remaining lines, values behind:

Row | SMILES | % Glucuronidase inhibition at 0.8 mM Bovine Liver [2] [%] | % Nacetyl glucosaminidase inhibition at 0.8 mM Bovine kidney [8] [%] | other results
6 | O=C(O)CN1C[C@@H](O)[C@H](O)[C@H]1CO [Compound T4, 2-((2R,3R,4R)-3,4-Dihydroxy-2-(hydroxymethyl)pyrrolidin-1-yl)acetic acid] |  |  | inhibition at 800 µM [1]: < 50%; IC50 ([2]; pH 5.0, 27° C., p-nitrophenyl β-D-glucuronide, read-out: IC50, β-Glucuronidase Bovine liver): 160 µM; inhibition at 800 µM [3]: < 50%; inhibition at 800 µM [4]: < 50%; inhibition at 800 µM [5]: < 50%; inhibition at 800 µM [6]: < 50%; inhibition at 800 µM (α-D-glucosidase (Yeast)): < 50%; inhibition at 800 µM (α-D-glucosidase (Rice)): < 50%; inhibition at 800 µM [7]: < 50%; % inhibition, N-acetyl-β-D-glucosaminidase (Bovine kidney) ([8]; compounds tested at 0.8 mM): 81.9%; IC50 ([8]; read-out: IC50, N-acetyl-β-D-glucosaminidase (Bovine kidney)): 39.6 µM
7 | CCC1CC(CC2CC(CCCC(C)C)[C@@H](CC)C(C)[C@H]2C)C(C)C(C)C1C (stereo partly shown) | 3.9 | 49.4 | 
8 | CC(CC(N)C(=O)O)C(=O)O (stereo not shown) | −1.6 | 0.8 | 
9 | O=C(O)[C@H]1NCC(O)C1O (stereo partly shown) | 13.8 | 6.6 | 
10 | CC[C@@H]1C(C)[C@H](C)CN1CCCC(C)=O (stereo partly shown) | −2 | 17 | 
11 | C[N+]1(C)C[C@@H](O)[C@H](O)[C@H]1C(=O)[O-] | 3.8 | 8 | 
